The results in this text go back to patent US20220039395A1, “INSECT CONTROL AGENTS” (priority 2018, published 2022).

What all share (assay type): in vivo
Test [1] relates to Myzus persicae. The test is described as follows: Topical application by spraying, air brush. The settings on record: 750 μl, 1×10^−5M of each peptide in Tween 24 0.1%, counted 48 hours post spray. Here is the method: (§1) Aphids were exposed to test peptides in the absence of additional external stress conditions.
(§2) Brassica rapa (Chinese cabbage; Wong Bok) were infested with 30 adult Myzus persicae aphids per plant. Aphids were left at least 2 hours to settle and begin feeding from the host plant.
Spraying took place inside an externally vented fume cupboard. […] To ensure spray tracking, all sprayed solutions had amaranth dye added, allowing the full surface of the plant to be evenly coated with the aerosolised compound.
The plants to be sprayed were placed inside a plastic disposal bag, inside the fume cupboard. This was used to control the area exposed to the aerosolised liquid, to avoid extensive spraying and cleaning inside the fume cupboard. The bag was further lined with absorbent paper towel to again help contain and control spray.
Each experiment had three controls:
i) no vehicle or peptide air spray only, negative control to assess effect of spraying on aphid ability to remain attached to the plant; ii) vehicle spray only (Tween 24 0.1%); and iii) Imidacloprid positive control (28.3 μM).
Imidacloprid was always applied last to prevent any possibility of stray pesticide being left inside the disposal bag and contaminating a test peptide applied plant.
Spray volumes for all solutions for this experiment 750 μl.
A clean air brush (ABEST AC06k30) was loaded with 750 μl of peptide solution diluted in […] 0.1% vehicle. For this experiment there were three test conditions: 1895 alone (1×10^−5M); 2129 alone (1×10^−5M); and a simultaneous co-application of 1895+2129 together (1×10^−5M of each peptide). During application, the air brush was held within the plastic bag and the compressor turned on. The air brush was then gently sprayed back and forth across the plant. […]
Post peptide application, each condition was placed into its own individual Bugdorm (Watkins and Doncaster, 44545), to prevent repulsed or displaced aphids moving from one condition to another. Numbers of alive and dead aphids on the plant were counted 48 hours post spray, and the presence of any fresh nymphs noted. […]

In test [2] the test system is Myzus persicae. As to the kind of experiment: Topical application by spraying, Potter Spray Tower. The settings on record: 3000 μl, 1×10^−5M of each peptide in ATPlus 0.1%, counted 48 hours post spray. Here is the method:
as §1, §2
Spraying took place inside a designated spray room. To ensure spray tracking, all sprayed solutions had amaranth dye added.
Potter Spray Tower (Burkard Manufacturing) was ‘primed’ by spraying 1000 μl of liquid coating the inside of the tower. Two controls were used:
i) vehicle spray only (Croda ATPlus UEP 100 LQ-(CQ) 0.1% v/v); and ii) Imidacloprid positive control (28.3 μM).
Imidacloprid was always applied last and via a second, separate, Potter Tower, to prevent any possibility of stray pesticide being left inside the tower and contaminating a test peptide-applied plant.
Spray volumes for all solutions were 3000 μl. The 6.9 mm spray head was loaded with 3000 μl of a 1×10^−5M peptide solution diluted in ATPlus 0.1%. After spraying was completed the plant was allowed to rest on the spray platform for 30 seconds to allow settling of the sprayed chemical.
For this experiment there were three test conditions: 1895 alone (1×10^−5M); 2129 alone (1×10^−5M); and a simultaneous co-application of 1895+2129 together (1×10^−5M of each peptide).
Post peptide application, each condition was placed into its own individual Bugdorm (Watkins and Doncaster, 44545), to prevent repulsed or displaced aphids moving from one condition to another. Numbers of alive and dead aphids on the plant were counted 48 hours post spray, and the presence of any fresh nymphs noted. Plants were watered prior to spraying but not afterwards to eliminate the possibility of drowning any aphids present or washing off the sprayed liquid.
Post spraying, the spray head was filled with over 3000 μl of 70% ethanol and sprayed until empty. The spray head was carefully removed and rinsed with 70% ethanol as some amaranth dye was observed on the spray head. […]

The test system of test [3] is Myzus persicae. As to the kind of experiment: Feeding of aphids with peptides in artificial diet; life span and fecundity. The settings on record: M. persicae on artificial diet containing the peptide; mean ± SE. Here is the method:
A standard artificial diet for M. persicae was produced as described in Van Emden (2009) and provided the basal diet to which neuropeptide analogues were added for screening purposes. Neuropeptide analogues were diluted individually in the artificial diet to a pre-determined recommended concentration as follows: 1895 (3.5×10^-5 M) and 2019 (2.0×10^-5 M). Feeding apparatus were constructed using a set-up developed by […] et al (2009). For this, a piece of Parafilm was stretched over a Plexiglas ring (h=4 cm, Ø=3 cm) and 100 μl of the artificial diet containing the desired neuropeptide analogue was pipette onto the Parafilm membrane. A second piece of Parafilm, stretched to 4 times the original thickness, was stretched over the original layer, sandwiching the artificial diet between two layers of Parafilm. A strip of Parafilm was wrapped around the circumference of the Plexiglas ring, sealing in the diet. A plastic ring (h=1.2 cm, Ø=3.4 cm) was subsequently placed over the Parafilm layer, creating a walled chamber in which to house test aphids in contact with the Parafilm layer containing the artificial diet. Finally, a small Petri dish (h=1 cm, Ø=3.6 cm), modified for ventilation with net cloth, was placed on top of each feeding apparatus to prevent aphid escape. To obtain aphids for use in experiments, reproducing anholocyclic adults were placed on individual excised leaves of Chinese cabbage at densities of 5 adults per leaf and allowed to reproduce for 24 h. The stem of each excised leaf was held within a 0.5 mL Eppendorf tube containing water via a punctured hole in the Eppendorf lid, and placed individually within a microcage (L=4 cm, Ø=9.5 cm). Following 24 h, adults were removed and resultant first instar nymphs (<1 day old and synchronised in age to within 24 h) retained. Nymphs were allowed to develop on the Chinese cabbage for 5 days. On day 5, (3rd instar) nymphs were transferred onto the artificial diet containing a neuropeptide analogue at densities of 1 per feeding chamber and monitored daily until death. Aphids were transferred to fresh artificial diet (containing neuropeptide analogue) every 5 days. Life history traits recorded include age at first reproduction, number of nymphs produced per 24 h period, and lifespan. From these parameters, lifetime fecundity and daily fecundity were calculated. Control groups were set up involving aphids reared on the host plant, an artificial diet without a neuropeptide analogue, and an artificial diet containing the native CAPA neuropeptide.

Numbered stars: 1 amine (or outer) side, 2 acyl side, 3 side chain; on linkers, the order of the positions; unused ones are H or OH. Peptide text beside a SMILES is read from it. * marks the point of attachment. X1 = Brc1ccc2c(c1)-c1cc(N*)ccc1C2; Suc = O=C(CCC(=O)[*:2])[*:1]

Regarding 2Abf-Suc-FGPRL-NH2 [compound 1895], the “% Lethality” value with Myzus persicae [1] was 27%. The “% Lethality” value with Myzus persicae [2] is on record as 34%. For the same compound, in the test on Myzus persicae [3], the “Age at 1st reproduction” value is 11.5 ± 0.5 days, the Ave. daily fecundity stood at 1.1±0.1 nymphs, the “Days as reproducing adult” value is 5.8 ± 1.8 and the “Life span” value stood at 19.8 ± 2.5 days. The Lifetime fecundity with Myzus persicae [3] is on record as 6.4±2.0 nymphs.
Regarding `CC[C@H](C)[C@H](NC(=O)[C@H](CCCNC(=N)N)NC(=O)[C@@H]1CCCN1C(=O)[C@@H](NC(=O)[C@H](C)NC(=O)CCC(=O)Nc1ccc2c(c1)-c1cc(Br)ccc1C2)[C@@H](C)O)C(N)=O` [compound 2129, 2Abf-Suc-ATPRI-NH2] ({X1-Suc}-ATPRI-NH2), in the test on Myzus persicae [1], the “% Lethality” value stood at 30%. Also, the “% Lethality” value in the test with Myzus persicae [2] was determined as 32%. In addition, in the test with Myzus persicae [3], the “Age at 1st reproduction” value amounted to 12.4 ± 0.7 days, the Ave. daily fecundity stood at 1.2±0.1 nymphs, the “Days as reproducing adult” value turned out to be 7.17 ± 1.5 and the “Life span” value is 21.0 ± 2.3 days. In the test with Myzus persicae [3], this compound showed a Lifetime fecundity of 8.8 ± 2.0 nymphs.
